{"source": "paper PMC12736008", "about": "“New Dimethylpyridine-3-Carboxamide Derivatives as MMP-13 Inhibitors with Anticancer Activity” (Molecules, 2025)", "biological_target": "T1, MMP-13 (Homo sapiens, UniProt P45452)", "T1 construct": "purchased Abcam ab139451", "experiment": "MMP-13 inhibitor screening assay kit (fluorometric)", "type": "biochemical", "settings": "single-point screening; tested compounds 1.8 to 4.6 µM", "protocol": "The inhibitory activity of the designed compounds against MMP-13 was evaluated using a commercial fluorometric MMP-13 inhibitor assay kit (Abcam, Cambridge, UK), following the manufacturer’s protocol. Solutions of the tested compounds were prepared at concentrations ranging from 1.8 to 4.6 µM. N-isobutyl-N-(4-methoxyphenylsulfonyl)glycyl hydroxamic acid (NNGH), a broad-spectrum inhibitor of matrix metalloproteinases, was used as positive control. […] In parallel, MMP-8 inhibition assays were also conducted using the same concentrations of compounds 3b, 3c, 3d, and 3g.\nIt should be emphasized that these assays were performed as single-point screening experiments, optimized for rapid qualitative assessment rather than full kinetic characterization. Consequently, the observed differences in activity between MMP-13 and MMP-8 are indicative trends supporting the selectivity predicted by computational studies, including docking, molecular dynamics simulations, and binding free energy calculations, rather than providing definitive quantitative evidence.\nThe inhibitory activity of the tested compounds was evaluated using the MMP-13 inhibitor screening assay kit (fluorometric) (Abcam, ab139451). The assay performed according to the manufacturer’s instructions. The designed compounds were tested at concentrations ranging from 1.8 to 4.6 µM, to determine their inhibitory activity. […]"}
{"smiles": "COc1ccc(S(=O)(=O)N(CC(=O)NO)CC(C)C)cc1", "note": "[NNGH, N-isobutyl-N-(4-methoxyphenylsulfonyl)glycyl hydroxamic acid, reference compound]", "values": [{"measurement": "MMP-13 activity inhibition", "value": "~97", "unit": "%"}]}
